The results in this text go back to ChEMBL document CHEMBL1921686, “Molecular design, synthesis and bioactivity of glycosyl hydrazine and hydrazone derivatives: notable effects of the sugar moiety” (2011).

Holding throughout (type): functional
Details in all cases: read-out: GI

Test [1] concerns Corynespora cassiicola. Briefly: Antifungal activity against Corynespora cassiicola assessed as growth inhibition at 500 ug/mL by potted plant test.
The test system of test [2] is Bel-7402. The test can be described thus: Antitumor activity against human Bel7402 cells assessed as growth inhibition at 10 uM by SRB method.
For test [3], the system named is KB. Briefly: Antitumor activity against human KB cells assessed as growth inhibition at 10 uM by SRB method. Background: The SRB assay estimates cell density from bound dye.
Test [4] deals with Fusarium oxysporum. The test can be described thus: Antifungal activity against Fusarium oxysporum assessed as growth inhibition at 500 ug/mL by potted plant test.
Test [5] has as its system BGC-823. Briefly: Antitumor activity against human BGC823 cells assessed as growth inhibition at 10 uM by SRB method.
The subject of test [6] is Rhizoctonia solani. The test can be described thus: Antifungal activity against Rhizoctonia solani assessed as growth inhibition at 500 ug/mL by potted plant test.
In test [7] the test system is Phytophthora capsici. Briefly: Antifungal activity against Phytophthora capsici assessed as growth inhibition at 500 ug/mL by potted plant test.

On to `COc1ccccc1C(=O)N/N=C/c1ccc(-c2ccc(F)cc2F)o1`, for which the inhibition of growth at 500 µg/mL in test [1] turned out to be 38.5%; in test [4], 9%; in test [6] it was 2%; in test [7] it was 20.9%. Further, the inhibition of growth at 10 µM in test [2] stood at 1.69%; in test [3], 10.1%; in test [5], 35.9%.
For the compound `O=C(N/N=C/c1ccc(-c2ccc(F)cc2F)o1)c1ccccc1O`, the inhibition of growth at 500 µg/mL in test [1] worked out at 27.7%; in test [4], 8%; in test [6], 16.1%; in test [7], 52.8%. Besides, the inhibition of growth at 10 µM amounted to 63.4% in test [2], 61.8% in test [3] and 68.4% in test [5].
For `O=C(N/N=C/c1ccc(-c2ccc(F)cc2F)o1)c1ccccc1S[C@@H]1O[C@H](CO)[C@@H](O)[C@H](O)[C@H]1O`, the inhibition of growth at 500 µg/mL in test [1] was 53.7%; in test [4] it was 45.2%; in test [6], 45.5%; in test [7] it was 88.5%. Moreover, the inhibition of growth at 10 µM in test [2] is -0.67%; in test [3] it was -0.3%; in test [5], 18.4%.
On to `O=C(N/N=C/c1ccc(-c2ccc(F)cc2F)o1)c1ccccc1O[C@@H]1O[C@H](CO)[C@@H](O)[C@H](O)[C@H]1O`, for which the inhibition of growth at 500 µg/mL in test [1] was 50.8%; in test [4], 0%; in test [6], 45.3%; in test [7] it was 85.5%. Further, the inhibition of growth at 10 µM in test [2] was -5.7%; in test [3] it was 18.2%; in test [5], 6.66%.
For the compound `O=C(N/N=C/c1ccc(-c2ccc(F)cc2F)o1)c1ccccc1S[C@@H]1O[C@H](CO)[C@H](O)[C@H](O)[C@H]1O`, the inhibition of growth at 500 µg/mL in test [1] was found to be 39.4%; in test [4], 64.5%; in test [6] it was 24.9%; in test [7] it was 88.4%. Besides, the results for the inhibition of growth at 10 µM in test [2], in test [3] and in test [5] were 27.2%, 10.7% and 16.1%, respectively.
Regarding `O=C(N/N=C/c1ccc(-c2ccccc2Cl)o1)c1ccccc1S[C@@H]1O[C@H](CO)[C@@H](O)[C@H](O)[C@H]1O`, the inhibition of growth at 500 µg/mL in test [1] came out at 41.9%; in test [4] it was 8.06%; in test [6], 34.4%; in test [7], 90%. Further, the values for the inhibition of growth at 10 µM in test [2], in test [3] and in test [5] were 2.09%, 24.3% and 6.21%, respectively.
In the case of `O=C(N/N=C/c1ccc(-c2ccccc2Cl)o1)c1ccccc1O[C@@H]1O[C@H](CO)[C@@H](O)[C@H](O)[C@H]1O`, the inhibition of growth at 500 µg/mL in test [1] was found to be 49.3%; in test [4], 64.5%; in test [6], 33.3%; in test [7], 90%. Moreover, the inhibition of growth at 10 µM was -10.3% in test [2], 9.11% in test [3] and 1.88% in test [5].
Take `O=C(N/N=C/c1ccc(-c2ccc(F)cc2F)o1)c1ccccc1S[C@@H]1O[C@H](CO)[C@@H](O[C@@H]2O[C@H](CO)[C@H](O)[C@H](O)[C@H]2O)[C@H](O)[C@H]1O`: the inhibition of growth at 500 µg/mL stood at 45.6% in test [1], 74.2% in test [4], 10.7% in test [6] and 30% in test [7]. Moreover, the inhibition of growth at 10 µM in test [2] was -10.6%; in test [3], 39.4%; in test [5], -2.72%.
With `O=C(N/N=C/c1ccc(-c2ccccc2Cl)o1)c1ccccc1S[C@@H]1O[C@H](CO)[C@@H](O[C@@H]2O[C@H](CO)[C@H](O)[C@H](O)[C@H]2O)[C@H](O)[C@H]1O`, the inhibition of growth at 500 µg/mL in test [1] was 41.6%; in test [4], 40.3%; in test [6], 43.5%; in test [7], 44.4%. For the same compound, the inhibition of growth at 10 µM in test [2] was 8.3%; in test [3], -4.67%; in test [5], 1.91%.
`N#Cc1c(Cl)c(Cl)c(Cl)c(C#N)c1Cl` [CHLOROTHALONIL]: in test [1], the inhibition of growth at 500 µg/mL is 83.9%.
On to `COc1cccc2c1C(=O)c1c(O)c3c(c(O)c1C2=O)C[C@@](O)(C(=O)CO)C[C@@H]3O[C@H]1C[C@H](N)[C@H](O)[C@H](C)O1` [DOXORUBICIN], for which the inhibition of growth at 10 µM in test [2] was determined as 6.53%; in test [3], 45.1%; in test [5] it was 51.2%.
Regarding `CC12CC1(C)C(=O)N(c1cc(Cl)cc(Cl)c1)C2=O` (stereo not given) [PROCYMIDONE], in test [7], the inhibition of growth at 500 µg/mL amounted to 93.2%.
With `COC(=O)NC(=S)Nc1ccccc1NC(=S)NC(=O)OC` [THIOPHANATE METHYL], the inhibition of growth at 500 µg/mL in test [4] came out at 64.5%.
As for `OCC1=C[C@H](N[C@H]2C[C@H](CO)[C@@H](O[C@@H]3O[C@H](CO)[C@@H](O)[C@H](O)[C@H]3O)[C@H](O)[C@H]2O)[C@H](O)[C@@H](O)[C@@H]1O` [VALIDAMYCIN], in test [6], the inhibition of growth at 500 µg/mL is 81%.
